# Test results taken from patent US11254722B2, “Recombinant proteins and uses thereof” (ACADEMIA SINICA, priority 2017, dated 2022).
# Tests used:
# HUVEC cells = experiment: HUVEC proliferation assay; type: cell-based; details: HGF-induced, HUVEC
# Method in brief: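 HUVEC, 5,000 per well, plated on poly-L-lysine in M199 with 1% FBS and HEPES. After 3 to 4 days of culture, growth read by Alamar blue incubation for 4 to 6 hours, fluorescence (RFU) at 544/590 nm.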
# cancer cells = experiment: In vitro proliferation of cancer cells stimulated by growth factors (Table 8); type: cell-based
# Experimental: (§1) For the proliferation assay, cells except for HUVEC were seeded at a density of 1,000 to 6,000 in 96 wells in an assay buffer of DMEM/F12 plus 0.2% BSA and 10 ug/ml transferrin. Chemical inhibitors were added after 16-20 hours after plating; IGF-1 or other growth factors or test chimeras in assay buffer were added at the time of plating or 16-20 hours after plating. 5,000 HUVEC ells were plated in poly-L-lysine coated 96 wells in M199 with 1%/FBS and HEPES. After 3 to 4 days of culture, growth was determined by incubating cells with Alamar blue for 4 to 6 hours and then the fluorescence (RFU) at 544/590 nm was read. For long term proliferation assays, cells were plated in the growth media with 5% or 10% FBS at densities of 500 to 10,000 cells per cm^2 growth area and grown for 7 to 21 days. Inhibitors and effectors were added 1-4 days after plating. Cells were exposed to cisplatin or gemcitabine for two days. Medium was renewed twice weekly. At completion, cells were fixed and then stained with Giemsa.
# The BP3-fc construct inhibited the proliferation of cancer cells that had been stimulated by IGF-1, IGF-2, neuregulin, HGF, and bFGF.
# VEGF = molecular target: T1, VEGF (Homo sapiens, UniProt P15692); experiment: In vitro proliferation stimulated by VEGF (Table 8); type: cell-based
# T1 construct: purchased R&D Systems
# T1 sequence (P15692 27-191 isoform P15692-4): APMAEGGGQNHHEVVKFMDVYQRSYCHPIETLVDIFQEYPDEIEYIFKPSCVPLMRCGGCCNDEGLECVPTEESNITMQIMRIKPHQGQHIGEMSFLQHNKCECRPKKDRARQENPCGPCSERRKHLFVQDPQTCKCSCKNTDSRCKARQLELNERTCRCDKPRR
# Experimental: as §1
# (§2) The BP3-VEGF-trap-fc (including the IGFBP3 domains, the VEGFR1 domain 2 and VEGFR2 domain 3 (VEGF-trap (22)), and human immunoglobulin Fc region) broadened the binding to include VEGF-A, VEGF-B, and placental growth factor (PIGF). This BP3-VEGF-trap chimera could inhibit the proliferation stimulated by IGF-1, IGF-2, neuregulin, PDGF-BB, HGF, bFGF, VEGF-A, and PIGF (see, Table 8).
# 3t3 = 3t3 proliferation assay; type: cell-based; details: PDGF-AB-induced
# Experimental: MCF-7 cells (a breast cancer cell line) were maintained in MEM (GIBCO) plus insulin and NEAA and 10% FBS (Hyclone).
# as §1
# hep3B cells = experiment: hep3B proliferation assay; type: cell-based, human; details: hep3B
# Method in brief: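 Cells seeded at 1,000 to 6,000 per well in DMEM/F12 with 0.2% BSA and 10 ug/ml transferrin. Inhibitors added 16-20 h after plating; IGF-1 or other growth factors at plating or 16-20 h later. After 3 to 4 days, growth read by Alamar blue fluorescence at 544/590 nm after 4 to 6 h.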
# [1] = Pharmacokinetics in mice, serum by Fc ELISA; type: in vivo
# Experimental: Grenier high binding ELISA plates were coated with 1 ug/ml goat anti-human Fc antibody (Jackson Immunoresearch) in PBS overnight, and then blocked with Assay Buffer (Invitrogen). Plates were incubated for 2 hours with Chimera or human Fc (Jackson Immunoresearch) as standard; followed by HRP-conjugated anti-human Fc antibody (Jackson Immunoresearch) for 60 minutes. HRP substrate, tetramethyl benzidine, was added; the reaction was stopped with 2 N […], and then the plate was read at 450 nm.
# Mice were injected subcutaneously with 100 ug chimera 56662 (4 mg/kg). Two mice per group were used. Serum samples were taken at 0, 4, 24, 48, 72 hours after injection. The concentration of 56662 in serum was determined by use of the hu fc ELISA.
# Serum half-life was measured in mice. 100 μg IGFBP3-Fc or 56662 (4 mg/kg) was injected subcutaneously and mouse serum was harvested at 0, 4, 24, 48, 72 hours after injection. Chimera concentration in serum was measured with the Fc ELISA. At 24 hours, the concentration of 56662 was over 2 μg/ml (FIG. 28), and the serum half-time was estimated to be about 43 hours.
# EGF = molecular target: T2, EGF (Homo sapiens, UniProt P01133); experiment: Binding to EGF
# T2 construct: purchased R&D Sciences or SinoBiologicals
# T2 sequence (P01133 971-1023 limits assumed): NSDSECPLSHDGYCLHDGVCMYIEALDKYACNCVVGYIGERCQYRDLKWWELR
# Description: Table 3 lists the correlation between the IGFBP3 growth factor binding as determined by the inhibition of the proliferation by 56662. The observed inhibitory effects may derive from the growth factor sequestration, and/or IGFBP3 independent effects.
# PIGF = molecular target: T3, PIGF (Homo sapiens, UniProt P49763); experiment: In vitro proliferation stimulated by PIGF (Table 8); type: cell-based
# T3 construct: purchased R&D Sciences or SinoBiologicals
# T3 sequence (P49763 19-221): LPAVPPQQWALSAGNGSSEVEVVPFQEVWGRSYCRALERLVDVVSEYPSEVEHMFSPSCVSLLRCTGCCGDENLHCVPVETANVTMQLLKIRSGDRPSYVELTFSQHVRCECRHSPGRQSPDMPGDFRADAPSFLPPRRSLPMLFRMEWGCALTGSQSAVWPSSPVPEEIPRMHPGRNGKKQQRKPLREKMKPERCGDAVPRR
# Experimental: as §1, §2
# [2] = system: MCF-7 breast cancer cells; experiment: MCF-7 proliferation assay; type: cell-based
# Method in brief: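 MCF-7 cells seeded at 1,000–6,000/well in serum-free DMEM/F12 with 0.2% BSA and 10 ug/ml transferrin; proliferation induced by growth factors (IGF-1, IGF-2, EGF, TGF-a, Nrgbx, b-FGF, amphiregulin); test chimeras added at plating or 16–20 h later. Growth read after 3–4 days by Alamar blue fluorescence (544/590 nm, 4–6 h).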
substance,measurement,setting,value
"56662: IGFBP3-Fc, SEQ ID NO: 7; unmodified IGFBP3 fused with the IgG Fc portion [compound 56662]","In vitro inhibition of proliferation, HGF",HUVEC cells,"yes (hep3B, HUVEC)"
same,inhibition of proliferation stimulated by bFGF,cancer cells,inh
same,inhibition of proliferation stimulated by VEGF,VEGF,no
same,"In vitro inhibition of proliferation, PDGF-AB",3t3,yes (3t3)
same,"In vitro inhibition of proliferation, HGF",hep3B cells; HGF-induced,"yes (hep3B, HUVEC)"
same,EC50,"hep3B cells; FIG. 11C, read-out: ECK for FBS-induced proliferation",201 nM
same,serum half-life,[1]; estimated,20 to 40 h
same,concentration in serum at 24 hours,"[1]; mice, 100 μg (4 mg/kg) subcutaneously, FIG. 28",over 2 μg/ml
same,serum half-time,"[1]; mice, 100 μg (4 mg/kg) subcutaneously, estimated",about 43 hours
same,binding to EGF,EGF,did not bind
same,inhibition of proliferation stimulated by PIGF,PIGF,no
same,"In vitro inhibition of proliferation, EGF","[2]; EGF-induced, MCF-7 cells",yes
same,"In vitro inhibition of proliferation, IGF-1","[2]; IGF-1-induced, MCF-7 cells",yes
same,"In vitro inhibition of proliferation, IGF-2","[2]; IGF-2-induced, MCF-7 cells",yes
same,"In vitro inhibition of proliferation, TGF-α","[2]; TGF-α-induced, MCF-7 cells",yes
same,"In vitro inhibition of proliferation, VEGF-165","[2]; VEGF-165, MCF-7 cells per footnote",no
same,"In vitro inhibition of proliferation, bFGF","[2]; bFGF-induced, MCF-7 cells",yes
same,inhibition of FBS-induced proliferation of MCF-7,"[2]; fetal bovine serum, FIG. 1, FIG. 4",inhibited
same,inhibition of proliferation induced by long-R3-IGF-1,"[2]; high concentrations of 56662, FIG. 2",can inhibit
same,"In vitro inhibition of proliferation, neuregulin","[2]; neuregulin-induced, MCF-7 cells",yes
